T1: PlUacP (P. larvae uric acid permease-like protein) (Paenibacillus larvae, UniProt V9VZQ8)
T1 construct: gene pbuX
T1 sequence (V9VZQ8 1-434): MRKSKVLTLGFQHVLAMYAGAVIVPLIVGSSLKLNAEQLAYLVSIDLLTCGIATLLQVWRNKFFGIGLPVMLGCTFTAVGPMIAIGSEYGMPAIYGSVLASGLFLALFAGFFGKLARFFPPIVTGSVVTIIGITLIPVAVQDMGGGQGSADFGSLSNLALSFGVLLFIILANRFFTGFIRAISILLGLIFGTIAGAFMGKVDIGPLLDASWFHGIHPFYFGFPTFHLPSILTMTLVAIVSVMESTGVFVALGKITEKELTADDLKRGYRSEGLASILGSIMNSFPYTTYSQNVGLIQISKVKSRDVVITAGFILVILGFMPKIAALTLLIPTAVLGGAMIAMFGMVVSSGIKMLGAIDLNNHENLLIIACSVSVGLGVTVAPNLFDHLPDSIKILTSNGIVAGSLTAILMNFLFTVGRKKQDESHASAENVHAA

B1: PlUacP (P. larvae uric acid permease-like protein) (Paenibacillus larvae subsp. larvae DSM 25430) (protein)
chain: T1 sequence (V9VZQ8 1-434)

molecular target: T1, PlUacP (P. larvae uric acid permease-like protein); test: competition with [3H]-adenine uptake in yeast; format: cell-based; conditions: competitive; 1 μM [2,8-3H]-adenine, 1 mM unlabelled competitor, S. cerevisiae RG191, 5 min

Molecule	% adenine uptake at 1 mM competitor
Nc1cc[nH]c(=O)n1 [cytosine]	guanine, cytosine, hypoxanthine, xanthine, uric acid, and uracil all compete with adenine
Nc1nc2[nH]cnc2c(=O)[nH]1 [guanine]	guanine, cytosine, hypoxanthine, xanthine, uric acid, and uracil all compete with adenine
O=c1[nH]cnc2nc[nH]c12 [hypoxanthine]	guanine, cytosine, hypoxanthine, xanthine, uric acid, and uracil all compete with adenine
O=c1[nH]c(=O)c2[nH]c(=O)[nH]c2[nH]1 [uric acid]	guanine, cytosine, hypoxanthine, xanthine, uric acid, and uracil all compete with adenine
O=c1[nH]c(=O)c2[nH]cnc2[nH]1 [xanthine]	guanine, cytosine, hypoxanthine, xanthine, uric acid, and uracil all compete with adenine

substrate: Nc1ncnc2nc[nH]c12; test: cells, lysate or membranes; conditions: labelled compound [2,8-3H]-adenine 0.1-30 μM, S. cerevisiae RG191, 10 min, 100 mM citrate pH 3.5, 1% glucose, Lineweaver-Burk

Molecule	Km
B1	7.04 ± 0.18 µM

From paper PMC6070649, “The solute transport and binding profile of a novel nucleobase cation symporter 2 from the honeybee pathogen Paenibacillus larvae” (FEBS Open Bio, 2018)
